According to ChEMBL document CHEMBL1201862, “PubChem BioAssay data set” (2004):
Activity calls are given as the source filed them.

Tests used:
Kallikrein-7 = Kallikrein-7 (Homo sapiens, UniProt P49862); assay: Fluorescence Intensity-based biochemical primary high throughput dose response assay to identify activators of kallikrein-7 (K7) zymogen.
[1] = target: T1, Type-1 angiotensin II receptor (Homo sapiens, UniProt P30556); assay: AT1 receptor agonists, dose response, selectivity assay for APJ receptor agonist project, cell-based, uHTS hits (AID 488865); assay type: functional;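 further: beta-arrestin recruitment to AT1 measured by enzyme fragment complementation luminescence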
T1 sequence (P30556 whole entry): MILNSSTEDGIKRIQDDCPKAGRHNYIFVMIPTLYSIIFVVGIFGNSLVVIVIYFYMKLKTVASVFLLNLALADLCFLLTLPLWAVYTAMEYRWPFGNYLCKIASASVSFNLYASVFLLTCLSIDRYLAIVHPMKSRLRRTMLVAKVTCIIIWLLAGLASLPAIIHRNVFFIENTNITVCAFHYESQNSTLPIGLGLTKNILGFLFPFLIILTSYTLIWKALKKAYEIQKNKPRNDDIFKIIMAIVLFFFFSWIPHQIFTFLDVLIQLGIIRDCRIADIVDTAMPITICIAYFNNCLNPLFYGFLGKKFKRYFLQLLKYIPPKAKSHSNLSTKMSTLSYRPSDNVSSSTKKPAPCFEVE

[2] = target: T2, DNA repair and recombination protein RAD54-like (Homo sapiens, UniProt Q92698); assay: inhibitors of human RAD54 branch migration, confirmation, biochemical, fluorescence, cherry-picked samples, dose series (AID 651657); assay type: functional
T2 sequence (Q92698 whole entry): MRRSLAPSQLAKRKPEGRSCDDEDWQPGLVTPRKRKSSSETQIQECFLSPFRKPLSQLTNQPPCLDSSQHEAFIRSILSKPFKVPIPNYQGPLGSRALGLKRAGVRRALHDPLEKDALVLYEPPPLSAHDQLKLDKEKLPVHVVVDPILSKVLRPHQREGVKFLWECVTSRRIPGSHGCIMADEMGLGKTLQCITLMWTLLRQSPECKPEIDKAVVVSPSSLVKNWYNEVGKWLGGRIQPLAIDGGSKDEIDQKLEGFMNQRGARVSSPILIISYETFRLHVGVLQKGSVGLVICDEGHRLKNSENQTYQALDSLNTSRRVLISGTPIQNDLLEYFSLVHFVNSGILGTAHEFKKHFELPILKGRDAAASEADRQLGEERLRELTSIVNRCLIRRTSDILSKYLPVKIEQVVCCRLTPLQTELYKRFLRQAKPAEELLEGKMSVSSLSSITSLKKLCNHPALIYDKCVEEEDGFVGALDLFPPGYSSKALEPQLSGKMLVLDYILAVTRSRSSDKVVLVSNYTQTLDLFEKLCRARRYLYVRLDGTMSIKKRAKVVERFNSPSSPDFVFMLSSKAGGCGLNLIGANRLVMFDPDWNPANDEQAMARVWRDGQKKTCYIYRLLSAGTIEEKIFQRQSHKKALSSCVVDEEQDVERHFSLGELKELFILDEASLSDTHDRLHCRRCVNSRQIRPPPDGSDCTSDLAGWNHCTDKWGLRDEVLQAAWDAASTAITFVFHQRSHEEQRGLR

[3] = Intein inhibitors as potential Tuberculosis drugs, a cytotoxicity screen. [Related pubchem assays (depositor defined):AID2221, AID2223, AID434968, AID435010, AID449749, AID449750, AID489010]; assay type: functional
Galanin receptor type 3 = target: T3, Galanin receptor type 3 (Homo sapiens, UniProt O60755); assay: Fluorescence-based cell-based primary high throughput dose response assay to identify antagonists of the Galanin Receptor 3 (GalR3).; assay type: functional
T3 sequence (O60755 whole entry): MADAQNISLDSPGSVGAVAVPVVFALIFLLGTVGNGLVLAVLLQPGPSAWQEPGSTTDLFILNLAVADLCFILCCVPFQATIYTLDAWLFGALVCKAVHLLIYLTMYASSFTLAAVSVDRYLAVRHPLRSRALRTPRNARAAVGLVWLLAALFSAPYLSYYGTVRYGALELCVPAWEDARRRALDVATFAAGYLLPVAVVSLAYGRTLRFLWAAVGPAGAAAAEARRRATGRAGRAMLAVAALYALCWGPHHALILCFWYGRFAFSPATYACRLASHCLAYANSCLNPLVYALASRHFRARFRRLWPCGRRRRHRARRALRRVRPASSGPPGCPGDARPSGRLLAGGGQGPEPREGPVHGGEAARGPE

Leucine aminopeptidase = target: T4, Leucine aminopeptidase (Plasmodium falciparum 3D7, UniProt Q8IL11); assay: P. falciparum M17LAP inhibitors, primary screen, biochemical, fluorogenic H-Leu-NHMec substrate, 1536-well (AID 1619); assay type: functional
T4 sequence (Q8IL11 whole entry): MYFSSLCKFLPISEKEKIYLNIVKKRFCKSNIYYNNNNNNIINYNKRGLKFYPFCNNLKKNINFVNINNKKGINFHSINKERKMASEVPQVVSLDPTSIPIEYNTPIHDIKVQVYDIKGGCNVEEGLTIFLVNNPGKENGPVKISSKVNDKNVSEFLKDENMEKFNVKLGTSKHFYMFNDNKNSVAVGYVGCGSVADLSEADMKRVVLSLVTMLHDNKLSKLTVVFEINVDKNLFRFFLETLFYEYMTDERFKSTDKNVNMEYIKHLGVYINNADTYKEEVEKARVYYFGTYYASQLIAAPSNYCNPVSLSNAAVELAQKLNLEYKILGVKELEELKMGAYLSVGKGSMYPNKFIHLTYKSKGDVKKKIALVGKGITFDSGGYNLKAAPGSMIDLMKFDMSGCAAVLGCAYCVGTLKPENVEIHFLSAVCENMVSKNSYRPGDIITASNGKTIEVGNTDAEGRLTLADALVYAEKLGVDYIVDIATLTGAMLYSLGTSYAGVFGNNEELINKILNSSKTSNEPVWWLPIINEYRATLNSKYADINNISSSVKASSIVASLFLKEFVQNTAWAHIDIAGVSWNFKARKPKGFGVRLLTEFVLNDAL

cells = assay type: functional, cell-based; settings: HEK-CNG
Protein RecA = target: T5, Protein RecA (Mycobacterium tuberculosis, UniProt P9WHJ3); assay: Fluorescence Cell-Free Homogeneous Dose Retest to Identify Inhibitors of RecA-Intein Splicing Activity. [Related pubchem assays (depositor defined):AID2097, AID2223, AID489010, AID492950]; assay type: functional
T5 sequence (P9WHJ3 whole entry): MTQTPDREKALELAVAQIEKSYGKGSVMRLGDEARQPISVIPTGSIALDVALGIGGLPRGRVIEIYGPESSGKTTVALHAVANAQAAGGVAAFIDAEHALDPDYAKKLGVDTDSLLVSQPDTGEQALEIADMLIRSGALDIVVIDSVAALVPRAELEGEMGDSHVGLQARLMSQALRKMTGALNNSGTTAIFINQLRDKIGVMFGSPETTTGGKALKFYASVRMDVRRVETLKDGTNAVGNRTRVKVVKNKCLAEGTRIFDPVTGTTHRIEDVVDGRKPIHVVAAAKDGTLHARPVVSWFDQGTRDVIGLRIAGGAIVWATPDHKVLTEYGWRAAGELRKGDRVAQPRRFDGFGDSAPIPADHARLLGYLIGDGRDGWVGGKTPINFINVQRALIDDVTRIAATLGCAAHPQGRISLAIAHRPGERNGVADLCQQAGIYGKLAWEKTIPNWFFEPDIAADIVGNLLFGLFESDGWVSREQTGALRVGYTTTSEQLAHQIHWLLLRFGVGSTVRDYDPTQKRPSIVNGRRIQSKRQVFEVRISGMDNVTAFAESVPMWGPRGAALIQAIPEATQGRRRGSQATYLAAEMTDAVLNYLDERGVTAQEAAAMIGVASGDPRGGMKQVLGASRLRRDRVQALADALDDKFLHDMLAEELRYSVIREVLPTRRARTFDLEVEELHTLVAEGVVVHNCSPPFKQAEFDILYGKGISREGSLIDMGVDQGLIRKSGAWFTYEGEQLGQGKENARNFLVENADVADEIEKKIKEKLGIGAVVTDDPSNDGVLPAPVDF

[4] = target: T6, Replicative DNA helicase DnaB (Mycobacterium tuberculosis, UniProt P9WMR3); assay: DnaB intein splicing inhibitors, dose response, biochemical, cell-free fluorescence (AID 449749); assay type: functional
T6 sequence (P9WMR3 whole entry): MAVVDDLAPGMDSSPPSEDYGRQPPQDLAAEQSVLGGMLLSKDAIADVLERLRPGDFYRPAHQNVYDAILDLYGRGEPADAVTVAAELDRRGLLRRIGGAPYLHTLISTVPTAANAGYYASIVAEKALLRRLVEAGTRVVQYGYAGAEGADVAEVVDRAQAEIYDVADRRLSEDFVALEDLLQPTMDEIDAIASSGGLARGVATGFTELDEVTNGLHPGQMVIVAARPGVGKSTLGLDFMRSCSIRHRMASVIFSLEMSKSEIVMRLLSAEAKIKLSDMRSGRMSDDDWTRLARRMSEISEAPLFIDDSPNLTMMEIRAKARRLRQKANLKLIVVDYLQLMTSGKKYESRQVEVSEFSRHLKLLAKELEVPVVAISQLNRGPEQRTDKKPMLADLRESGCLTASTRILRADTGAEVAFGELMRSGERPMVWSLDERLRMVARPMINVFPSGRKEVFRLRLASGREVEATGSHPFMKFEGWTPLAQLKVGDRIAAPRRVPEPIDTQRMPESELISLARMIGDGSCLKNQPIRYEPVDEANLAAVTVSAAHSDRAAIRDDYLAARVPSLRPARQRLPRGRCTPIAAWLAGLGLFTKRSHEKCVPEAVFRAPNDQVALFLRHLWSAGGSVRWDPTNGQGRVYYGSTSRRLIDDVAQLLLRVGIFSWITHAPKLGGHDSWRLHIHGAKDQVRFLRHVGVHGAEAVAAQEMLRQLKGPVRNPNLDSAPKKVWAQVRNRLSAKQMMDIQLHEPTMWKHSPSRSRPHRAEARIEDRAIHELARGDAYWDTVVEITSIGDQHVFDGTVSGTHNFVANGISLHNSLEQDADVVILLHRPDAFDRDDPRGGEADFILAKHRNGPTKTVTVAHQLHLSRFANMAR

T-cell = assay: inhibitors of CD8+ T cell–vesicle binding, dose response, mouse 2C CD8+ T cells, flow cytometry (AID 485284); assay type: functional
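Wherever CC50 is given: cells exposed to compound for 72 hours before luminescence readout.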

Chain of Kallikrein-7 (P49862 whole entry, the tested form may be a part): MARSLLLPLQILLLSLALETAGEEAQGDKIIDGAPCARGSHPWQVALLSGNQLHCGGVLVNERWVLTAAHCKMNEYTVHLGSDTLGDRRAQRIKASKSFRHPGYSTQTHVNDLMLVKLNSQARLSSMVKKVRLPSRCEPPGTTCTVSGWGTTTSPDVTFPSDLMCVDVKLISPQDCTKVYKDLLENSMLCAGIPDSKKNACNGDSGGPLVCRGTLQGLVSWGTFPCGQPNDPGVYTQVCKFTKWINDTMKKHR

## COc1cccc2sc3cc(NCC[C@@H]4CCCN4C)ccc3c(=O)c12
Kallikrein-7
  EC50: > 69.5 µM (inactive)
[1]
  EC50: > 100 µM (inactive)
[2]
  AC50: 9.49 µM (active)

## N#CC(C#N)C(c1ccsc1)c1c(-c2ccccc2)n[nH]c1O (stereo not given)
[3]
  CC50: > 40 µM (active)
Galanin receptor type 3
  IC50: > 29.9 µM (inactive)
Leucine aminopeptidase
  IC50: 36.7 µM (active)
cells
  EC50: 17.4 µM (inactive)
Protein RecA
  EC50: 0.468 µM (active)
[4]
  AC50: 2.85 µM (active)

## CC1CCCCC1NC(=O)COC(=O)c1ccc2ncsc2c1 (stereo not given)
T-cell
  EC50: 48.4 µM (inactive)
